Holding throughout (test): NCI-60 cell line screen, 48 h
Assay [1] concerns MALME-3M melanoma.
For assay [2], the system named is HCC-2998 colon.
The subject of assay [3] is A498 renal.
In assay [4] the test system is HOP-62 NSCLC.
Assay [5] concerns MCF7 breast.
Assay [6] concerns SN12C renal.
Assay [7] has as its system SF-268 CNS.
The test system of assay [8] is SR leukemia.

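In this assay, cells in 96-well plates receive the compound at five concentrations for 48 hours. Endpoints are linearly interpolated between the surrounding concentrations. The concentration for 50% growth inhibition is given as GI50. Definition used: TGI = concentration required for complete inhibition of growth.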

In the case of `Nc1c(C(=O)Nc2cccc3ccccc23)sc2nc3c(cc12)CCCCCC3`, the GI50 in assay [1] was more than 50 µM; in assay [2], 2.64 µM; in assay [3], 2.48 µM; in assay [4] it was 5.05 µM; in assay [5] it was 0.302 µM; in assay [6], 3.4 µM. The GI50 is 2.77 µM in assay [7] and 0.429 µM in assay [8]. The TGI in assay [1] was more than 50 µM; in assay [2] it was more than 50 µM; in assay [3], 42.5 µM; in assay [4] it was more than 50 µM; in assay [5], more than 50 µM; in assay [6], more than 50 µM. Also, the TGI in assay [7] and in assay [8] was more than 50 µM in each case.
For the compound `CCc1cc(Cc2cc(CC)cc(C(C)(C)C)c2O)c(O)c(C(C)(C)C)c1`, the GI50 is 1.16 µM in assay [1]; 2.42 µM in assay [2]; 1.76 µM in assay [3]; 4.39 µM in assay [4]; 2.49 µM in assay [5]; 3.82 µM in assay [6]. For the same compound, the values for the GI50 in assay [7] and in assay [8] were 3.4 µM and 3.28 µM, respectively. Further, the TGI in assay [1] came to 3.48 µM; in assay [2], 6.52 µM; in assay [3] it was 5.39 µM; in assay [4], 17.1 µM; in assay [5], 7.74 µM; in assay [6], 13.7 µM. For the same compound, the TGI stood at 12.6 µM in assay [7] and 18.7 µM in assay [8].
As to `COc1cc(-c2nc3cc(Cl)c(Cl)cc3[nH]2)ccc1OCC(=O)N=Nc1c(O)[nH]c2ccccc12`, the GI50 in assay [1] is 0.226 µM; in assay [2], 0.419 µM; in assay [3] it was 1.46 µM; in assay [4], 0.832 µM; in assay [5] it was 0.201 µM; in assay [6], 0.506 µM. The GI50 in assay [7] is 0.566 µM; in assay [8], 0.301 µM. Also, the TGI in assay [1] stood at 0.683 µM; in assay [2] it was 1.43 µM; in assay [3], 3.37 µM; in assay [4] it was 2.62 µM; in assay [5], 0.479 µM; in assay [6], 1.8 µM. Besides, the values for the TGI in assay [7] and in assay [8] were 3.06 µM and more than 100 µM, respectively.
With `CCOc1ccc(-n2cc(-c3ccc(N(C)C)cc3)[n+]3c2CCCCC3)cc1`, the GI50 in assay [1] was 0.269 µM; in assay [2], 0.188 µM; in assay [3], 1.22 µM; in assay [4] it was 2.3 µM; in assay [5], 0.14 µM; in assay [6], 0.891 µM. Also, the GI50 in assay [7] is 2.2 µM; in assay [8] it was 0.978 µM. In addition, the TGI is 14.1 µM in assay [1]; more than 100 µM in assay [2]; 8.44 µM in assay [3]; more than 77.9 µM in assay [4]; more than 100 µM in assay [5]; 19 µM in assay [6]. Further, the results for the TGI in assay [7] and in assay [8] were more than 100 µM and 29.4 µM, respectively.
Consider `COC(=O)/C=C/c1cc(OC)c2c(c1)[C@@H](C(=O)OC)[C@H](c1ccc(OC)c(OC)c1)O2`, for which the GI50 was more than 100 µM in assay [1]; 3.35 µM in assay [2]; 1.06 µM in assay [3]; 4.33 µM in assay [4]; 0.388 µM in assay [5]; 6.44 µM in assay [6]. For the same compound, the GI50 is 2.91 µM in assay [7] and 0.543 µM in assay [8]. The TGI is more than 100 µM in assay [1]; more than 100 µM in assay [2]; 33 µM in assay [3]; more than 100 µM in assay [4]; 14.2 µM in assay [5]; more than 100 µM in assay [6]. For the same compound, the TGI in assay [7] and in assay [8] was more than 100 µM in each case.
For the compound `CC(=O)O[C@H]1CC[C@@]2(C)[C@@H](CC[C@@H]3[C@@H]2CC(=O)[C@@]2(C)[C@H]3C[C@@H]3CC(C)=CC(=O)[C@@H]32)C1`, the TGI in assay [1], in assay [2], in assay [3], in assay [4], in assay [5] and in assay [6] was more than 100 µM throughout. In addition, the TGI in assay [7] and in assay [8] was more than 100 µM in each case.
Regarding `O=C1/C=C/[C@@H](O)[C@@H]2C[C@@H](O)C[C@H]2/C=C/CCCCO1`, the GI50 in assay [1] was 0.321 µM; in assay [2], 0.32 µM; in assay [3], 0.166 µM; in assay [4] it was 2.23 µM; in assay [5], 0.327 µM; in assay [6] it was 0.954 µM. Further, the GI50 in assay [7] is 0.33 µM; in assay [8] it was 8.61 µM. Moreover, the TGI is 3.24 µM in assay [1]; 1.76 µM in assay [2]; 1.92 µM in assay [3]; more than 100 µM in assay [4]; 1.88 µM in assay [5]; more than 100 µM in assay [6]. In assay [8], this compound displayed a TGI of more than 100 µM.
As to `c1ccc(Oc2cnc3ccccc3n2)cc1`, the GI50 in assay [1] is more than 100 µM; in assay [2] it was more than 100 µM; in assay [3] it was 14.7 µM; in assay [4], more than 100 µM; in assay [5], more than 100 µM; in assay [6], more than 100 µM. The GI50 in assay [7] is 64 µM; in assay [8] it was 55.3 µM. For the same compound, the TGI in assay [1], in assay [2], in assay [3], in assay [4], in assay [5] and in assay [6] was more than 100 µM throughout. Besides, the TGI in assay [7] and in assay [8] was more than 100 µM each time.
Consider `COc1ccccc1NC(=O)C(=O)C(C#N)CC(C)(C)C=O` (stereo not drawn), for which the TGI in assay [1], in assay [2], in assay [3], in assay [4], in assay [5] and in assay [6] was more than 100 µM each time. In addition, the TGI in assay [7] and in assay [8] was more than 100 µM throughout.
For `O=C(/C=C/c1ccco1)c1cccc(Nc2nc(Nc3ccccc3)nc(Nc3ccccc3)n2)c1`, the GI50 in assay [1] is more than 66.7 µM; in assay [2], 25.7 µM; in assay [3], 0.444 µM; in assay [4] it was more than 55.4 µM; in assay [5], 1.92 µM; in assay [6], 35 µM. In addition, the GI50 was 28.7 µM in assay [7] and 5.01 µM in assay [8]. For the same compound, the TGI is more than 100 µM in assay [1]; more than 100 µM in assay [2]; 1.77 µM in assay [3]; more than 100 µM in assay [4]; more than 52.4 µM in assay [5]; more than 100 µM in assay [6]. The figures for the TGI in assay [7] and in assay [8] were more than 100 µM and more than 24.1 µM, respectively.

Source of the values: PubChem BioAssay (NCI).
